Data published in PubChem BioAssay AID2060606 (Molecular Pharmacology Branch, DTP, NCI, 2025).
Several values for one entry are separate records, joined by “and”; a condition that tells them apart may be missing. Identical values can stand only once.

Test system: 922993-354-T-J3-PDC complex spheroids, viability, % test/control
Test: Anticancer human tumor 922993-354-T-J3-PDC patient-derived endometrial carcinoma cell line growth inhibition [CLK]
Details: for viability, T/C: stronger effect = lower value; active means viability on the fitted dose curve at most 10% of control; inactive means the rest
Text: A high-throughput screen of multi-cell type tumor spheroids was designed to identify active combinations of […] and targeted small molecules. Complex spheroids include a stromal component modeled by human endothelial cells (HUVEC) and fibroblasts modeled by human mesenchymal stem cells (MSCs). The concentration ranges selected for each drug and investigational agent were based upon clinically achievable concentrations if the clinical Cmax of the agent was known.
Compounds. The drugs and investigational agents: cirtuvivint (SM08502; NSC835563), CC-671 (NSC850746), vemurafenib (NSC761431), tapotoclax (NSC804041), sotorasib (NSC818433), adagrasib (NSC831453), MRTX-1133 (NSC836407), BAY2416964 (NSC825713), copanlisib (NSC816437), inavolisib (NSC800729), abemaciclib (NSC768073), osimertinib (NSC779217), entinostat (NSC756642), eltanexor (KPT-8602, NSC794443), venetoclax (NSC766270), ceralasertib (NSC777638), bortezomib (NSC756655), olaparib (NSC753686), talazoparib (NSC767125), alisertib (NSC759677), peposertib (NSC802822), gemcitabine (NSC613327), 5-fluorouracil (NSC19893), SN-38 (NSC673596), oxaliplatin (NSC266046), paclitaxel (NSC125973), and doxorubicin (NSC123127), were obtained from the National Cancer Institute (NCI) Developmental Therapeutics Program Chemical Repository. The FDA-approved anticancer drug set is available from the Developmental Therapeutics Program at https://dtp.cancer.gov/organization/dscb/obtaining/available plates.htm. […] The stock solutions were prepared in dimethyl sulfoxide (DMSO, Sigma-Aldrich, St. Louis, MO, cat. D2650), except for the platinum complexes which were prepared in saline (Quality Biological, Gaithersburg, MD, cat. 114-055-101), at 800-fold the tested concentration and stored at -70 degrees C prior to their use. All drugs and investigational agents were tested over a range starting from a high concentration at or near the clinical Cmax and decreasing in half-log increments. If the clinical Cmax for an agent had not been determined, the highest concentration tested was 10 microM.
Cell Culture. All cells were maintained in an incubator at 37 degrees C and 5% CO2 with 95% humidity. The PDC lines were cultured according to standard operating procedures established by the NCI PDMR. Briefly, all PDCs were thawed and cultured in Matrigel-coated flasks prepared with a working solution of 1X Ham's F-12 nutrient mix, without supplementation (Invitrogen, Waltham, MA, cat. 11765054), 100 U/mL penicillin-streptomycin (Invitrogen, cat. 15140122), and 2.5% Matrigel (Corning Inc., Corning, NY, cat. 354248) for the first three passages. The 947758-054-R-J2-PDC line was cultured in 6B/Colon 1A media, which includes advanced DMEM/F-12 (Thermo Fisher Scientific, cat. 12634028), 10 mM HEPES (Thermo Fisher Scientific, cat. 15630080), 1X GlutaMAX supplement (Thermo Fisher Scientific, cat. 35050061), 0.1 mg/mL primocin (InvivoGen, cat. ant-pm-2), 10% defined fetal bovine serum, heat inactivated (HyClone Laboratories Inc., cat. SH30070.03HI), 1.25 mM N-Acetyl-L-cysteine (Sigma-Aldrich, cat. A9165), 10 mM nicotinamide (Sigma-Aldrich, cat. N0636), 1X B-27 supplement (Thermo Fisher Scientific, cat. 17504044), 1X N-2 supplement (Thermo Fisher Scientific, cat. 17502048), and 10 microM Y-27632 dihydrochloride (Tocris Bioscience, cat. 1254). The 876862-298-R-J1-PDC was cultured in 6E media, which includes all 6B/Colon 1A media components plus 50% L-WRN conditioned media (ATCC, cat. CRL-3276), 50 ng/mL recombinant human EGF recombinant protein (hEGF; Thermo Fisher Scientific, cat. PHG0311), 10 ng/mL recombinant human fibroblast growth factor 10 (hGFG-10; PeproTech, cat. 100-26), 1 ng/mL recombinant human fibroblast growth factor 2 (hFGF-2; PeproTech, cat. 100-18B), and 1 µM prostaglandin E2 (PGE2; Tocris, cat. 2296). The 227483-062-R1-J1-PDC line was cultured in Panc media, containing all 6E components except hFGF-2, with the addition of 500 nM SB-431542 (Selleckchem, cat. S1067) and 10 nM gastrin (Tocris, cat. 3006). […]
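Further: spheroids exposed to the agents for 7 days before readout.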

CCN1CCN(Cc2ccc(Nc3ncc(F)c(-c4cc(F)c5nc(C)n(C(C)C)c5c4)n3)nc2)CC1 + CNC(=O)c1ccc(Nc2nc(OC3CCCC3)c3c(-c4ccc5nc(C)oc5c4)c[nH]c3n2)c(OC)c1
297 nM: IC50 (curve of first compound, second compound 0.316 µM)
< 3.16 nM: IC50 (curve of first compound, second compound 1 µM) | IC50 (curve of first compound, second compound 3.16 µM) | IC50 (curve of first compound, second compound 10 µM)
inactive: viability, T/C (second compound 0.0316 µM, first compound 0.00316 µM) 106% | viability, T/C (second compound 0.0316 µM, first compound 0.01 µM) 93.2% | viability, T/C (second compound 0.0316 µM, first compound 0.0316 µM) 98.5% | viability, T/C (second compound 0.0316 µM, first compound 0.1 µM) 88.5% | viability, T/C (second compound 0.0316 µM, first compound 0.316 µM) 69% | viability, T/C (second compound 0.0316 µM, first compound 1 µM) 59.9% | viability, T/C (second compound 0.1 µM, first compound 0.00316 µM) 103% | viability, T/C (second compound 0.1 µM, first compound 0.01 µM) 93.4% | viability, T/C (second compound 0.1 µM, first compound 0.0316 µM) 92.4% | viability, T/C (second compound 0.1 µM, first compound 0.1 µM) 76.7% | viability, T/C (second compound 0.1 µM, first compound 0.316 µM) 66.9% | viability, T/C (second compound 0.1 µM, first compound 1 µM) 53.8% | viability, T/C (second compound 0.316 µM, first compound 0.00316 µM) 58% | viability, T/C (second compound 0.316 µM, first compound 0.01 µM) 59.2% | viability, T/C (second compound 0.316 µM, first compound 0.0316 µM) 57.4% | viability, T/C (second compound 0.316 µM, first compound 0.1 µM) 56.4% | viability, T/C (second compound 0.316 µM, first compound 0.316 µM) 45.5% | viability, T/C (second compound 0.316 µM, first compound 1 µM) 45.7% | viability, T/C (second compound 1 µM, first compound 0.00316 µM) 35.6% | viability, T/C (second compound 1 µM, first compound 0.01 µM) 33.6% | viability, T/C (second compound 1 µM, first compound 0.0316 µM) 33.6% | viability, T/C (second compound 1 µM, first compound 0.1 µM) 35.9% | viability, T/C (second compound 1 µM, first compound 0.316 µM) 30.5% | viability, T/C (second compound 1 µM, first compound 1 µM) 38.1% | viability, T/C (second compound 3.16 µM, first compound 0.00316 µM) 29.4% | viability, T/C (second compound 3.16 µM, first compound 0.01 µM) 27.9% | viability, T/C (second compound 3.16 µM, first compound 0.0316 µM) 30.5% | viability, T/C (second compound 3.16 µM, first compound 0.1 µM) 31.5% | viability, T/C (second compound 3.16 µM, first compound 0.316 µM) 31.6% | viability, T/C (second compound 3.16 µM, first compound 1 µM) 35.5% | viability, T/C (second compound 10 µM, first compound 0.00316 µM) 28.6% | viability, T/C (second compound 10 µM, first compound 0.01 µM) 29.2% | viability, T/C (second compound 10 µM, first compound 0.0316 µM) 31.9% | viability, T/C (second compound 10 µM, first compound 0.1 µM) 29% | viability, T/C (second compound 10 µM, first compound 0.316 µM) 38.4% | viability, T/C (second compound 10 µM, first compound 1 µM) 36.3%
> 1000 nM: IC50 (curve of first compound, second compound 0.0316 µM) | IC50 (curve of first compound, second compound 0.1 µM)

COc1c(OCCCN2CCOCC2)ccc2c3n(c(=NC(=O)c4cnc(N)nc4)nc12)CCN3
inactive: viability, T/C (compound 0.00316 µM) 109% and 111% | viability, T/C (compound 0.01 µM) 89.1% and 90.3% | viability, T/C (compound 0.0316 µM) 75.1% and 91.2% | viability, T/C (compound 0.1 µM) 54.6% and 68.8% | viability, T/C (compound 0.316 µM) 30.3% and 40.4%
118 nM and 226 nM: IC50 (curve of compound)
9.62% and 15.9%: viability, T/C (compound 1 µM)
